From ChEMBL document CHEMBL2203275, “Design and synthesis of novel bis-thiazolone derivatives as micromolar CDC25 phosphatase inhibitors: effect of dimerisation on phosphatase inhibition” (Bioorg Med Chem Lett, 2012) come the findings set out here.

SMILES strings stand for the structures. pIC50: −log10 of the molar value.

Test [1] concerns the target T1, Tyrosine-protein phosphatase non-receptor type 1 (Homo sapiens) (UniProt P18031).
T1 sequence (whole entry): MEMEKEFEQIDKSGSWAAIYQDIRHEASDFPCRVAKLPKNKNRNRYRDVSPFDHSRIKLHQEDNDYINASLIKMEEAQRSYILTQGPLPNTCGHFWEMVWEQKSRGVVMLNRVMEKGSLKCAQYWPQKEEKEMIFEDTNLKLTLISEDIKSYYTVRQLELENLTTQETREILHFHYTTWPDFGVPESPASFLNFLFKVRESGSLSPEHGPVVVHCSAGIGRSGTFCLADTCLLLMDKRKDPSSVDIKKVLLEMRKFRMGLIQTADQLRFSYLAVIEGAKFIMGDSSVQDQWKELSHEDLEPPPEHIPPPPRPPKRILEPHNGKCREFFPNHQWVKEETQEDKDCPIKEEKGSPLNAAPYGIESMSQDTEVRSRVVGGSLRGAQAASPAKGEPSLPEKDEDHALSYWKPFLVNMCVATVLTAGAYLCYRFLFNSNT
In words: Inhibition of PTP1B using fluorescein 3,6 diphosphate as substrate at 50 uM measured for 1 hr in presence of 1 mM dithiothreitol.

Test [2] deals with T1, Tyrosine-protein phosphatase non-receptor type 1 (Homo sapiens). In words: Inhibition of PTP1B using fluorescein 3,6 diphosphate as substrate at 100 uM measured for 1 hr in presence of 1 mM dithiothreitol.
The target in test [3] is T2, Tyrosine-protein phosphatase non-receptor type 1 (Homo sapiens, UniProt P18031).
T2 sequence (P18031 whole entry): T1 sequence (whole entry)
The test is described as follows: Inhibition of PTP1B using fluorescein 3,6 diphosphate as substrate measured for 1 hr in presence of 1 mM dithiothreitol.

Test [4] deals with T3, M-phase inducer phosphatase 2 (Homo sapiens, UniProt P30305).
T3 sequence (P30305 whole entry): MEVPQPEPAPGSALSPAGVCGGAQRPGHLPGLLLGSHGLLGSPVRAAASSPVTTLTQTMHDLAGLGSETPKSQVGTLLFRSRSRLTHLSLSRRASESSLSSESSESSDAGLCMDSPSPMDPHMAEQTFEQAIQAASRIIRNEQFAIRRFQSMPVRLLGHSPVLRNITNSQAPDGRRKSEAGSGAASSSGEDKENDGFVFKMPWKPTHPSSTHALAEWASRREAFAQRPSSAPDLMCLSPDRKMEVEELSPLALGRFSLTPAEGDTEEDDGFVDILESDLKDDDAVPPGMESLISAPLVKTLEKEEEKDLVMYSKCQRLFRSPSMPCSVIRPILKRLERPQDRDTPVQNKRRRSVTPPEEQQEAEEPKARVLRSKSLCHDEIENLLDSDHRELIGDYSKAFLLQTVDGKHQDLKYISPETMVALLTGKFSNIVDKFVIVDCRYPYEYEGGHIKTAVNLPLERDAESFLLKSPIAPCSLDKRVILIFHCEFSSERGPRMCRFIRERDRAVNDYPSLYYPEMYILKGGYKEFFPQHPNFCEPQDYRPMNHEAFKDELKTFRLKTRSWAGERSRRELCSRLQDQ
In words: Inhibition of MBP-fused recombinant wild type CDC25B3 using fluorescein 3,6 diphosphate as substrate measured for 30 mins in presence of 1 mM dithiothreitol.

In test [5] the target is T4, Dual specificity protein phosphatase 3 (Homo sapiens, UniProt P51452). The test is described as follows: Inhibition of VHR using fluorescein 3,6 diphosphate as substrate at 100 uM measured for 1 hr in presence of 1 mM dithiothreitol.
Target sequence in this assay (P51452 whole entry, looked up, the tested form may be a part): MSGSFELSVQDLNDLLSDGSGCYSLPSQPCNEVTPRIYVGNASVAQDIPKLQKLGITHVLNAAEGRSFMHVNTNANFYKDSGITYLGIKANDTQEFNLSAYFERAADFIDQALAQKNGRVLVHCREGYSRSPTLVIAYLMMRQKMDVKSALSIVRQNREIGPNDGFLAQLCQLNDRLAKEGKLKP
The target in test [6] is T3, M-phase inducer phosphatase 2. The test is described as follows: Inhibition of MBP-fused recombinant wild type CDC25B3 using fluorescein 3,6 diphosphate as substrate measured for 30 mins in presence of 20 mM dithiothreitol.
Test [7] has the same target. The test is described as follows: Inhibition of MBP-fused recombinant wild type CDC25B3 using fluorescein 3,6 diphosphate as substrate measured for 30 mins in presence of 10 mM dithiothreitol.
Test [8] deals with T4, Dual specificity protein phosphatase 3. The test is described as follows: Inhibition of VHR using fluorescein 3,6 diphosphate as substrate at 10 uM measured for 1 hr in presence of 1 mM dithiothreitol.
Target sequence in this assay (P51452 whole entry, looked up, the tested form may be a part): as above
Test [9] concerns the target T5, M-phase inducer phosphatase 2 (Homo sapiens) (UniProt P30305).
T5 sequence (whole entry): T3 sequence (P30305 whole entry)
In words: Inhibition of MBP-fused recombinant wild type CDC25B3 using fluorescein 3,6 diphosphate as substrate at 100 uM measured for 30 mins in presence of 1 mM dithiothreitol.

The target in test [10] is T1, Tyrosine-protein phosphatase non-receptor type 1 (Homo sapiens). The test is described as follows: Inhibition of PTP1B using fluorescein 3,6 diphosphate as substrate at 10 uM measured for 1 hr in presence of 1 mM dithiothreitol.
Test [11] concerns the target T4, Dual specificity protein phosphatase 3. In words: Inhibition of VHR using fluorescein 3,6 diphosphate as substrate measured for 1 hr in presence of 1 mM dithiothreitol.
Target sequence in this assay (P51452 whole entry, the tested form may be a part): as the sequence (P51452 whole entry, looked up, the tested form may be a part) above

As to `O=C1N=C(NCCCc2cn(CCCNC3=NC(=O)/C(=C/c4ccc(O)cc4)S3)nn2)S/C1=C\c1ccc(O)cc1`, in test [1], the inhibition came to 50%.
As to `CCCCNC1=NC(=O)/C(=C/c2ccc(O)cc2)S1`, the inhibition in test [2] is 35%.
On to `O=C1N=C(NCCN2CCN(CCNC3=NC(=O)/C(=C/c4ccc(O)cc4)S3)CC2)S/C1=C\c1ccc(O)cc1`, for which the pIC50 in test [3] is 4.34.
Still for that read-out and setting: the result for `O=C1N=C(NCCCCCCCNC2=NC(=O)/C(=C/c3ccc(O)cc3)S2)S/C1=C\c1ccc(O)cc1` reads 4.51.
In the case of `O=C1N=C(NCC2CCCC(CNC3=NC(=O)/C(=C/c4ccc(O)cc4)S3)C2)S/C1=C\c1ccc(O)cc1` (stereo not drawn), the pIC50 was 5.05 in test [3] and 5.18 in test [4]. Moreover, the inhibition in test [5] was determined as 30%.
In the case of `O=C1N=C(NCCCCCCCNC2=NC(=O)/C(=C/c3ccc(-c4ccccc4)o3)S2)S/C1=C\c1ccc(-c2ccccc2)o1`, in [2], the inhibition was determined as 50%.
`O=C(O)/C=C/c1ccc(/C=C2\SC(NCCCCCCCNC3=NC(=O)/C(=C/c4ccc(/C=C/C(=O)O)cc4)S3)=NC2=O)cc1`: in [3], the pIC50 was 4.57.
For `O=C1N=C(NCCCn2cc(CNC3=NC(=O)/C(=C/c4ccc(O)cc4)S3)nn2)S/C1=C\c1ccc(O)cc1`, the inhibition in test [1] was determined as 25%.
On to `O=C1N=C(NCCCCCCCCNC2=NC(=O)/C(=C/c3ccc(O)cc3)S2)S/C1=C\c1ccc(O)cc1`, for which the pIC50 was 4.94 in test [3] and 5.41 in test [4]. Besides, the inhibition in test [5] was 29%.
In the case of `O=C1N=C(NCCCCNC2=NC(=O)/C(=C/c3ccc(O)cc3)S2)S/C1=C\c1ccc(O)cc1`, in test [3], the pIC50 is 4.55.
The same measure, in the same setting: the figure for `O=C1N=C(NCCCCCCCNC2=NC(=O)/C(=C/c3ccc(O)c(O)c3)S2)S/C1=C\c1ccc(O)c(O)c1` is 4.63; for `O=C1N=C(NCCCCCCCCCNC2=NC(=O)/C(=C/c3ccc(O)cc3)S2)S/C1=C\c1ccc(O)cc1` it is 5.21; for `O=C1N=C(NCCCCCCCNC2=NC(=O)/C(=C/c3ccccc3)S2)S/C1=C\c1ccccc1` it is 4.38.
For `O=C1N=C(NCCCn2cc(CCNC3=NC(=O)/C(=C/c4ccc(O)cc4)S3)nn2)S/C1=C\c1ccc(O)cc1`, the inhibition in test [1] was determined as 20%; in [5] it was 55%. The pIC50 in [4] is 4.69.
For the compound `CNC1=NC(=O)/C(=C/c2ccc(O)cc2)S1`, the inhibition in test [2] came to 32%.
The same measure, in the same setting: the result for `COc1cc(/C=C2\SC(NCCCCCCCNC3=NC(=O)/C(=C/c4cc(OC)c(O)c(OC)c4)S3)=NC2=O)cc(OC)c1O` reads 2%; that for `CCCCCNC1=NC(=O)/C(=C/c2ccc(O)cc2)S1`, 35%.
Turning to `CC1=CC(=O)c2ccccc2C1=O` [MENADIONE], the pIC50 in test [4] was 5.66.
Regarding `O=C1N=C(NCCN2CCN(CCNC3=NC(=O)/C(=C/c4ccc5[nH]ncc5c4)S3)CC2)S/C1=C\c1ccc(O)cc1`, in [2], the inhibition was 18%.
With `O=C1N=C(NCCCCCCCNC2=NC(=O)/C(=C/c3cc(Br)c(O)c(Br)c3)S2)S/C1=C\c1cc(Br)c(O)c(Br)c1`, the pIC50 was 5.49 in test [6], 5.51 in test [7], 4.62 in test [3] and 5.86 in test [4]. For the same compound, the inhibition worked out at 31% in test [8] and 100% in test [5].
As for `O=C1N=C(NCCCc2cn(CCNC3=NC(=O)/C(=C/c4ccc(O)cc4)S3)nn2)S/C1=C\c1ccc(O)cc1`, the inhibition in test [1] was determined as 35%.
Consider `O=C1N=C(NCCN2CCN(CCNC3=NC(=O)/C(=C/c4ccc(O)cc4)S3)CC2)S/C1=C\C=C\c1ccccc1`, for which the inhibition in test [2] was 13%.
For the compound `O=C1N=C(NCCCCCCCNC2=NC(=O)/C(=C/C=C/c3ccccc3)S2)S/C1=C\C=C\c1ccccc1`, the pIC50 in test [4] was 5.11. Moreover, the inhibition came to 51% in [2] and 34% in test [5].
Take `O=C1N=C(NCc2ccccc2)S/C1=C\c1ccc(O)cc1`: the inhibition in test [2] is 46%; in test [5] it was 8%; in [9], 45%.
`O=C1N=C(NCc2cccc(CNC3=NC(=O)/C(=C/c4ccc(O)cc4)S3)c2)S/C1=C\c1ccc(O)cc1`: the pIC50 in test [3] is 5.04.
In the case of `O=C1N=C(NCCCCCCCNC2=NC(=O)/C(=C/c3ccc4c(c3)OCO4)S2)S/C1=C\c1ccc2c(c1)OCO2`, the negative logarithm of the IC50 (pIC50) in test [4] was 4.86. The inhibition in test [2] turned out to be 30%; in test [5] it was 27%.
`O=C1N=C(NCCN2CCN(CCNC3=NC(=O)/C(=C/c4cc(Br)c(O)c(Br)c4)S3)CC2)S/C1=C\c1ccc(O)cc1`: the figures for the inhibition in test [10] and in test [2] were 33% and 100%, respectively.
For the compound `O=C1N=C(NCCN2CCN(CCNC3=NC(=O)/C(=C/c4ccc(O)cc4)S3)CC2)S/C1=C\C=C\c1ccco1`, the inhibition in test [2] was determined as 39%.
For `O=C1N=C(NCCCCCCNC2=NC(=O)/C(=C/c3ccc(O)cc3)S2)S/C1=C\c1ccc(O)cc1`, the pIC50 in [3] is 4.91.
In the case of `O=C1N=C(NCCN2CCN(CCNC3=NC(=O)/C(=C/c4ccc5c(c4)OCO5)S3)CC2)S/C1=C\c1ccc(O)cc1`, the pIC50 in test [4] is 5.36. Besides, the inhibition in [2] came out at 19%; in test [5] it was 29%.
As to `O=C1N=C(NCCCCCNC2=NC(=O)/C(=C/c3ccc(O)cc3)S2)S/C1=C\c1ccc(O)cc1`, the pIC50 in test [11] is 4.12; in test [3], 4.69; in [4] it was 4.86.
